According to patent EP4803080A1, “METHOD FOR TREATING LEUKEMIA” (Shenzhen TargetRx Co., Ltd., priority 2023, dated 2025):
Read-outs that look alike come from different tables or passages of the source. One block for each compound: values may come before it.

Assays:
[1] = Tissue distribution study using quantitative whole-body autoradiography (QWBA); format: in vivo, Long-Evans rats and Sprague-Dawley rats; conditions: single oral 50 mg/100 µCi/kg
Procedure: This test utilized a total of 8 male Long Evans (LE) rats, randomly designated as Gt1M01 to Gt1M08; and 4 Sprague-Dawley (SD) rats, with an equal number of males and females, randomly designated as Gt2M01 to Gt2M02 and Gt2F01 to Gt2F02. Each rat received a single oral dose of 50 mg/100 µCi/kg of [^14C]-Compound A via gavage. SD rats were euthanized at 4 hours and 72 hours post-dose (with the 72-hour rats serving as backups); LE rats were euthanized at 0.5 hours, 4 hours, 24 hours, 72 hours, 168 hours, 336 hours, 504 hours, and 840 hours post-dose (with the 504-hour and 840-hour rats serving as backups). According to the rat sequence numbers, one male and one female SD rat and one male LE rat were transferred to an induction chamber, euthanized with an overdose of carbon dioxide, and about 4 mL of whole blood was collected via cardiac puncture. Immediately after blood collection, the carcasses were immersed in a dry ice-hexane bath for freezing and fixation.
Plasma samples were obtained by low-temperature centrifugation of whole blood. After homogenization, aliquots of each plasma sample were mixed directly with scintillation fluid, and the radioactivity was measured using a liquid scintillation counter (LSC). Frozen carcasses were sectioned, dried, and exposed/developed to determine total radioactivity in tissues/regions (including gastrointestinal contents). Pharmacokinetic parameters for total radioactivity in plasma and tissues were calculated using a non-compartmental model with WinNonLin software (version 8.3, Certara). After development of sections at each time point, 46 tissues/regions (including gastrointestinal contents) were analyzed for LE rats, and 45 tissues/regions (including gastrointestinal contents) were analyzed for SD rats. The radioactivity concentrations in unanalyzed regions were all lower than the lowest concentration in the analyzed tissues or regions.

[2] = test system: Ba/F3 BCR-ABL1 E255V/T315I; experiment: Cell growth inhibition activity test, single agents and combinations (CellTiter-Glo, Chou-Talalay); format: cell-based; conditions: Mus musculus, BaF3, 72 h
Procedure: (§1) A series of cell lines expressing BCR-ABL1 single mutations and compound mutations were constructed based on the Ba/F3 mouse pro-B cell line.
(§2) This assay utilized the CellTiter-Glo (CTG) kit provided by Promega, which is a homogeneous method for cell viability detection, measuring the viability of cultured cells by quantifying ATP. Cells were seeded in 96-well plates and treated with different concentrations of test substances. […] At the end of the treatment, CTG reagent (CellTiter-Glo kit) was added according to the manufacturer's instructions to detect cell viability values. Plates were read on a microplate reader (Biotek cytation 3.0). IC50 values were calculated using GraphPad Prism 7.0 software.

Ba/F3 BCR-ABL1 T315M = experiment: as above; format: cell-based, mouse
Procedure: as §1, §2

[3] = test system: Ba/F3 BCR-ABL1 Q252H/T315I; experiment: as above; format: cell-based, mouse; conditions: for IC50: Mus musculus, BaF3, 72 h
Procedure: as §1, §2

[4] = test system: Ba/F3 BCR-ABL1 Y253H/T315I; experiment: as above; format: cell-based, mouse; conditions: Mus musculus; for IC90: Fig. 3
Procedure: as §1, §2

[5] = clinical dose of 45 mg QD; cited from earlier work

Structure (SMILES): O=C(Nc1ccc(OC(F)(F)Cl)cc1)c1cnc(N2CC[C@@H](F)C2)c(-c2cnccn2)c1 [[14C]-Compound A]
Total Radioactivity, Plasma ([1]; Female SD rats, 4 hrs): 15320 ng Eq./g
Total Radioactivity, Whole brain ([1]; Female SD rats, 4 hrs): 9800 ng Eq./g
Total Radioactivity, Plasma ([1]; Male LE rats, 0.5 hrs): 7131 ng Eq./g
Total Radioactivity, Whole brain ([1]; Male LE rats, 0.5 hrs): 4885 ng Eq./g
Total Radioactivity, Plasma ([1]; Male LE rats, 4 hrs): 11981 ng Eq./g
Total Radioactivity, Whole brain ([1]; Male LE rats, 4 hrs): 6950 ng Eq./g
Total Radioactivity, Plasma ([1]; Male SD rats, 4 hrs): 10656 ng Eq./g
Total Radioactivity, Whole brain ([1]; Male SD rats, 4 hrs): 6400 ng Eq./g

Structure (SMILES): Cc1ccc(C(=O)Nc2ccc(CN3CCN(C)CC3)c(C(F)(F)F)c2)cc1C#Cc1cnc2cccnn12 [ponatinib]
minimum plasma concentration at steady state (Cssmin) [5]: 64.3 nM
anti-proliferative effect (Ba/F3 BCR-ABL1 T315M; single-agent ponatinib, Fig. 6): no anti-proliferative effect
inhibition of cell viability ([3]; single-agent ponatinib at 60 nM and 48 nM, Fig. 5): could be inhibited
IC90 ([4]; BaF3, read-out: IC90 value of ponatinib, ponatinib in combination with asciminib): 165 nM
IC90 ([4]; BaF3, read-out: IC90 value of ponatinib, ponatinib in combination with compound A): 60.9 nM

Results, then the compound that gave them:

IC50 [2]: 3920 ± 1380 nM
IC50 (Ba/F3 BCR-ABL1 T315M; Mus musculus, BaF3, 72 h): 3970 ± 151 nM
IC50 [3]: 3130 ± 9.9 nM
IC50 ([4]; BaF3, 72 h): 3715 ± 9.9 nM
Structure (SMILES): COc1cc(Nc2c(C#N)cnc3cc(OCCCN4CCN(C)CC4)c(OC)cc23)c(Cl)cc1Cl [bosutinib]

IC50 ([4]; BaF3, 72 h, single agent, Y253H/T315I, 72 hours, read-out: IC50): 8420 ± 245 nM
Structure (SMILES): Cc1ncc(NC(=O)c2ccc(CN3CCN(C)CC3)c(C(F)(F)F)c2)cc1Nc1nccc(-c2cccnc2)n1 [flumatinib]

IC50 [2]: 25.8 ± 2.9 nM
IC50 [3]: 7.7 ± 0.01 nM
IC50 ([4]; BaF3, 72 h, read-out: IC50^I1): 36.9 nM
IC50 ([4]; BaF3, read-out: IC50^I2): 5.44 nM
Structure (SMILES): Cc1ccc(C(=O)Nc2ccc(CN3CCN(C)CC3)c(C(F)(F)F)c2)cc1C#Cc1cnc2[nH]ncc2c1 [olverembatinib]
